The source of these data is patent publication US8269026B2, “Lupane derivatives useful for treating HIV” (priority 2008, dated 2012).

The structures appear in SMILES notation. Where a name gives a salt, the structure may show the parent alone. Read-outs that look alike come from different tables or passages of the source. Where only a bound is given, the exact number is not on record here.

In the experiment the test system is HIV-1 (HIVIIIB) replication in MT2 cell line. As to the kind of experiment: HIV-1 replication in MT2 cell line with and without 30% human serum (viral RT activity in supernatant). In kind it is cell-based. Conditions: Human immunodeficiency virus 1, MT2 cells, average IC50 if tested more than once. The gist of the method: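 MT2 cells infected with HIV-1 IIIB at MOI 0.5 for 3 h, washed, seeded at 0.5×10^6/ml in RPMI/10% FBS with serially diluted compound, with or without 30% human serum; medium and compound refreshed on day 3. RT activity in supernatant at day 5; IC50 and IC90 derived.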

The mark [1] stands for this setting: with 30% human serum, read-out: MT2 (HIVIIIB) with HS 30% IC50 range.
[2] abbreviates: without human serum, read-out: MT2 (HIVIIIB) IC50 range.

Usually IC50 stands for the point on the concentration scale where inhibition reaches its midpoint.

`CC(C)C1=C2[C@H]3CC[C@@H]4[C@@]5(C)CC[C@H](OC(=O)CC(C)(C)C(=O)O)C(C)(C)[C@@H]5CC[C@@]4(C)[C@]3(C)CC[C@@]2(NC(=O)c2ccccc2)CC1=O` [19-2, 3β-O-(3′,3% Dimethylsuccinyl)-17β-benzamido-21-oxolup-18-ene]: the IC50 is less than 199 nM under setting [1] and less than 199 nM under setting [2].
As for `CC(C)C1=C2[C@H]3CC[C@@H]4[C@@]5(C)CC[C@H](OC(=O)CC(C)(C)C(=O)O)C(C)(C)[C@@H]5CC[C@@]4(C)[C@]3(C)CC[C@@]2(NC(=O)CC(C)(C)C(=O)O)CC1=O` [19-3, 3β-O,17β-N-bis(3′,3′-dimethylsuccinyl)-21-oxolup-18-ene], the IC50 under setting [2] was less than 199 nM.
With `Cc1nnc(C(=O)N[C@@]23CC[C@]4(C)[C@H](CC[C@@H]5[C@@]6(C)CC[C@H](OC(=O)CC(C)(C)C(=O)O)C(C)(C)[C@@H]6CC[C@]54C)C2=C(C(C)C)C(=O)C3)o1` [19-4, 3β-O-(3′,3′-Dimethylsuccinyl)-17β-(5-methyl-[1,3,4]oxadiazole-2-amido)-21-oxolup-18-ene], the IC50 runs as follows: under setting [1], less than 199 nM; under setting [2], less than 199 nM.
Regarding `CC(C)C1=C2[C@H]3CC[C@@H]4[C@@]5(C)CC[C@H](OC(=O)CC(C)(C)C(=O)O)C(C)(C)[C@@H]5CC[C@@]4(C)[C@]3(C)CC[C@@]2(NC(=O)C2CCN(C(=O)OC(C)(C)C)CC2)CC1=O` [19-5, 3β-O-(3′,3′-Dimethylsuccinyl)-17β-(1-tert-butyloxycarbonylpiperidine-4-amido)-21-oxolup-18-ene], the IC50 under setting [1] was less than 199 nM and the IC50 under setting [2] was less than 199 nM.
Turning to `CC(C)C1=C2[C@H]3CC[C@@H]4[C@@]5(C)CC[C@H](OC(=O)CC(C)(C)C(=O)O)C(C)(C)[C@@H]5CC[C@@]4(C)[C@]3(C)CC[C@@]2(NC(=O)C2CCNCC2)CC1=O` [19-6, 3β-O-(3′,3′-Dimethylsuccinyl)-17β-(piperidine-4-amido)-21-oxolup-18-ene], the IC50 is, setting by setting: under setting [1], greater than 1000 nM; under setting [2], less than 199 nM.
The matching figures for `CC(=O)N1CCC(C(=O)N[C@@]23CC[C@]4(C)[C@H](CC[C@@H]5[C@@]6(C)CC[C@H](OC(=O)CC(C)(C)C(=O)O)C(C)(C)[C@@H]6CC[C@]54C)C2=C(C(C)C)C(=O)C3)CC1` [19-7, 3β-O-(3′,3′-Dimethylsuccinyl)-17β-(1-acetylpiperidine-4-amido)-21-oxolup-18-ene]: less than 199 nM and less than 199 nM.
The matching figures for `CC(C)C1=C2[C@H]3CC[C@@H]4[C@@]5(C)CC[C@H](OC(=O)CC(C)(C)C(=O)O)C(C)(C)[C@@H]5CC[C@@]4(C)[C@]3(C)CC[C@@]2(NC(=O)c2cccnc2)CC1=O` [19-8, 3β-O-(3′,3′-Dimethylsuccinyl)-17β-(pyridin-3-yl)amido-21-oxolup-18-ene]: less than 199 nM and less than 199 nM.
The matching figures for `CC(C)C1=C2[C@H]3CC[C@@H]4[C@@]5(C)CC[C@H](OC(=O)CC(C)(C)C(=O)O)C(C)(C)[C@@H]5CC[C@@]4(C)[C@]3(C)CC[C@@]2(NC(=O)Cc2ccc(F)cc2)CC1=O` [19-9, 3β-O-(3′,3′-Dimethylsuccinyl)-17β-(4-fluorobenzyl)amido-21-oxolup-18-ene]: less than 199 nM and less than 199 nM.
As for `CC(C)C1=C2[C@H]3CC[C@@H]4[C@@]5(C)CC[C@H](OC(=O)CC(C)(C)C(=O)O)C(C)(C)[C@@H]5CC[C@@]4(C)[C@]3(C)CC[C@@]2(NC(=O)c2ccccc2F)CC1=O` [19-11, 3β-O-(3′,3′-Dimethylsuccinyl)-17β-(2-fluorobenzamido)-21-oxolup-18-ene], the IC50 was less than 199 nM under setting [1] and less than 199 nM under setting [2].
For `CC(C)C1=C2[C@H]3CC[C@@H]4[C@@]5(C)CC[C@H](OC(=O)CC(C)(C)C(=O)O)C(C)(C)[C@@H]5CC[C@@]4(C)[C@]3(C)CC[C@@]2(NC(=O)c2cccc(F)c2)CC1=O` [19-12, 3β-O-(3′,3′-Dimethylsuccinyl)-17β-(3-fluorobenzamido)-21-oxolup-18-ene], the IC50 under setting [1] is less than 199 nM.
Regarding `CC(C)C1=C2[C@H]3CC[C@@H]4[C@@]5(C)CC[C@H](OC(=O)CC(C)(C)C(=O)O)C(C)(C)[C@@H]5CC[C@@]4(C)[C@]3(C)CC[C@@]2(NC(=O)c2ccc(F)cc2)CC1=O` [19-13, 3β-O-(3′,3′-Dimethylsuccinyl)-17β-(4-fluorobenzamido)-21-oxolup-18-ene], the IC50 runs as follows: under setting [1], less than 199 nM; under setting [2], less than 199 nM.
In the case of `CC(C)C1=C2[C@H]3CC[C@@H]4[C@@]5(C)CC[C@H](OC(=O)CC(C)(C)C(=O)O)C(C)(C)[C@@H]5CC[C@@]4(C)[C@]3(C)CC[C@@]2(NC(=O)c2ccncc2)CC1=O` [19-14, 3β-O-(3′,3′-Dimethylsuccinyl)-17β-(pyridin4-yl)amido-21-oxolup-18-ene], under setting [1], the IC50 was less than 199 nM.
As to `CC(C)C1=C2[C@H]3CC[C@@H]4[C@@]5(C)CC[C@H](OC(=O)CC(C)(C)C(=O)O)C(C)(C)[C@@H]5CC[C@@]4(C)[C@]3(C)CC[C@@]2(NC(=O)c2ccccn2)CC1=O` [19-15, 3β-O-(3′,3′-Dimethylsuccinyl)-17β-(Pyridin-2-yl)amido-21-oxolup-18-ene hydrochloride], the IC50 under setting [1] was less than 199 nM.
Same read-out and setting: the same measure for `CC(C)C1=C2[C@H]3CC[C@@H]4[C@@]5(C)CC[C@H](OC(=O)CC(C)(C)C(=O)O)C(C)(C)[C@@H]5CC[C@@]4(C)[C@]3(C)CC[C@@]2(NC(=O)c2cnccn2)CC1=O` [19-16, 3β-O-(3′,3′-Dimethylsuccinyl)-17β-(pyrazin-2-yl)amido-21-oxolup-18-ene]: less than 199 nM; for `CC(C)C1=C2[C@H]3CC[C@@H]4[C@@]5(C)CC[C@H](OC(=O)CC(C)(C)C(=O)O)C(C)(C)[C@@H]5CC[C@@]4(C)[C@]3(C)CC[C@@]2(NC(=O)c2ccn(C)n2)CC1=O` [19-17, 3β-O-(3′,3′-Dimethylsuccinyl)-17β-(1-methyl-1H-pyrazole-3-amido)-21-oxolup-18-ene]: less than 199 nM.
In the case of `CC(C)C1=C2[C@H]3CC[C@@H]4[C@@]5(C)CC[C@H](OC(=O)CC(C)(C)C(=O)O)C(C)(C)[C@@H]5CC[C@@]4(C)[C@]3(C)CC[C@@]2(NC(=O)c2cncn2C)CC1=O` [19-18, 3β-O-(3′,3′-Dimethylsuccinyl)-17β-(1-methyl-1H-imidazole-5-amido)-21-oxolup-18-ene], the IC50 under setting [1] is less than 199 nM.
Take `CC(C)C1=C2[C@H]3CC[C@@H]4[C@@]5(C)CC[C@H](OC(=O)CC(C)(C)C(=O)O)C(C)(C)[C@@H]5CC[C@@]4(C)[C@]3(C)CC[C@@]2(NC(=O)c2cn(C)cn2)CC1=O` [19-19, 3β-O-(3′,3′-Dimethylsuccinyl)-17β-(1-methyl-1H-imidazole-4-amido)-21-oxolup-18-ene]: the IC50 under setting [1] is less than 199 nM.
Still for that read-out and setting: the same measure for `CC(C)C1=C2[C@H]3CC[C@@H]4[C@@]5(C)CC[C@H](OC(=O)CC(C)(C)C(=O)O)C(C)(C)[C@@H]5CC[C@@]4(C)[C@]3(C)CC[C@@]2(NC(=O)c2cccs2)CC1=O` [19-20, 3β-O-(3′,3′-Dimethylsuccinyl)-17β-(2-thiophene)amido-21-oxolup-18-ene]: less than 199 nM; for `CC(C)C1=C2[C@H]3CC[C@@H]4[C@@]5(C)CC[C@H](OC(=O)CC(C)(C)C(=O)O)C(C)(C)[C@@H]5CC[C@@]4(C)[C@]3(C)CC[C@@]2(NC(=O)c2nccs2)CC1=O` [19-21, 3β-O-(3′,3′-Dimethylsuccinyl)-17β-(1,3-thiazole-2-amido)-21-oxolup-18-ene]: less than 199 nM; for `CC(C)C1=C2C3CCC4[C@@]5(C)CC[C@H](OC(=O)CC(C)(C)C(=O)O)C(C)(C)C5CC[C@@]4(C)[C@]3(C)CC[C@@]2(NC(=O)c2ncccn2)CC1=O` (stereo partly drawn) [19-22, 3β-O-(3′,3′-Dimethylsuccinyl)-17β-(pyrimidine-2-amido)-21-oxolup-18-ene]: less than 199 nM.
For `CC(C)C1=C2C3CCC4[C@@]5(C)CC[C@H](OC(=O)CC(C)(C)C(=O)O)C(C)(C)C5CC[C@@]4(C)[C@]3(C)CC[C@@]2(NC(=O)c2cncnc2)CC1=O` (stereo partly drawn) [19-23, 3β-O-(3′,3′-Dimethylsuccinyl)-17β-(pyrimidine-5-amido)-21-oxolup-18-ene], the IC50 is, setting by setting: under setting [1], less than 199 nM; under setting [2], less than 199 nM.
With `Cc1cc(C(=O)N[C@@]23CC[C@]4(C)C(CCC5[C@@]6(C)CC[C@H](OC(=O)CC(C)(C)C(=O)O)C(C)(C)C6CC[C@]54C)C2=C(C(C)C)C(=O)C3)no1` (stereo partly drawn) [19-24, 3β-O-(3′,3′-Dimethylsuccinyl)-17β-(5-methylisoxazole-3-amido)-21-oxolup-18-ene], the half-maximal inhibitory concentration (IC50) is, setting by setting: under setting [1], less than 199 nM; under setting [2], less than 199 nM.
On to `CC(C)C1=C2C3CCC4[C@@]5(C)CC[C@H](OC(=O)CC(C)(C)C(=O)O)C(C)(C)C5CC[C@@]4(C)[C@]3(C)CC[C@@]2(NC(=O)c2ccncn2)CC1=O` (stereo partly drawn) [19-25, 3β-O-(3′,3′-Dimethylsuccinyl)-17β-(pyrimidine-4-amido)-21-oxolup-18-ene], for which the IC50 under setting [1] is less than 199 nM.
Same read-out and setting: the same measure for `CC(C)C1=C2C3CCC4[C@@]5(C)CC[C@H](OC(=O)CC(C)(C)C(=O)O)C(C)(C)C5CC[C@@]4(C)[C@]3(C)CC[C@@]2(NC(=O)c2nccn2C)CC1=O` (stereo partly drawn) [19-26, 3β-O-(3′,3′-Dimethylsuccinyl)-17β-(1-methyl-1H-imidazole-2-amido)-21-oxolup-18-ene]: less than 199 nM.
Same read-out and setting: the same measure for `CC(C)C1=C2C3CCC4[C@@]5(C)CC[C@H](OC(=O)CC(C)(C)C(=O)O)C(C)(C)C5CC[C@@]4(C)[C@]3(C)CC[C@@]2(NC(=O)c2cscn2)CC1=O` (stereo partly drawn) [19-27, 3β-O-(3′,3′-Dimethylsuccinyl)-17β-(1,3-thiazole-4-amido)-21-oxolup-18-ene]: less than 199 nM; for `CC(C)C1=C2C3CCC4[C@@]5(C)CC[C@H](OC(=O)CC(C)(C)C(=O)O)C(C)(C)C5CC[C@@]4(C)[C@]3(C)CC[C@@]2(NC(=O)c2cncs2)CC1=O` (stereo partly drawn) [19-28, 3β-O-(3′,3′-Dimethylsuccinyl)-17β-(1,3-thiazole-5-amido)-21-oxolup-18-ene]: less than 199 nM.
